Data from ChEMBL document CHEMBL6109146, “Discovery of New Pyrazolone Carbothioamide Derivatives as Potent Antifungal Agents for the Treatment of Candidiasis and Cryptococcosis” (J Med Chem, 2025).
Calls of active or inactive are those of the source. The calls are words filed in the database; no cut-off is given here.

Assays:
Cryptococcus neoformans [1] = experiment: Antifungal activity against Cryptococcus neoformans 011409 assessed as inhibition of fungal growth incubated for 48 to 72 hrs by microplate reader analysis; assay type: functional; conditions: time 48-72 hrs
Cryptococcus neoformans [2] = experiment: Antifungal activity against Cryptococcus neoformans H99 assessed as inhibition of fungal growth incubated for 48 to 72 hrs by microplate reader analysis; assay type: functional; conditions: time 48-72 hrs
Candida albicans [3] = experiment: Antifungal activity against Candida albicans 103 assessed as inhibition of fungal growth incubated for 48 to 72 hrs by microplate reader analysis; assay type: functional, organism-based; conditions: time 48-72 hrs
Nakaseomyces glabratus [4] = experiment: Antifungal activity against Candida glabrata 8535 assessed as inhibition of fungal growth incubated for 48 to 72 hrs by microplate reader analysis; assay type: functional; conditions: time 48-72 hrs
Cryptococcus neoformans [5] = experiment: Antifungal activity against Cryptococcus neoformans HN-68 assessed as inhibition of fungal growth incubated for 48 to 72 hrs by microplate reader analysis; assay type: functional; conditions: time 48-72 hrs
Nakaseomyces glabratus [6] = experiment: Antifungal activity against Candida glabrata 0161 assessed as inhibition of fungal growth incubated for 48 to 72 hrs by microplate reader analysis; assay type: functional; conditions: time 48-72 hrs
Cryptococcus gattii = experiment: Antifungal activity against Cryptococcus gattii 01063P assessed as inhibition of fungal growth incubated for 48 to 72 hrs by microplate reader analysis; assay type: functional; conditions: time 48-72 hrs
Candida albicans [7] = experiment: Antifungal activity against Candida albicans SC5314 assessed as inhibition of fungal growth incubated for 48 to 72 hrs by microplate reader analysis; assay type: functional, organism-based; conditions: time 48-72 hrs
[Candida] auris [8] = Antifungal activity against Candida auris 0029 assessed as inhibition of fungal growth incubated for 48 to 72 hrs by microplate reader analysis; assay type: functional, organism-based; conditions: Candidozyma auris, time 48-72 hrs
Candida albicans [9] = experiment: Antifungal activity against Candida albicans 9296 assessed as inhibition of fungal growth incubated for 48 to 72 hrs by microplate reader analysis; assay type: functional, organism-based; conditions: time 48-72 hrs
[Candida] auris [10] = Antifungal activity against Candida auris 0030 assessed as inhibition of fungal growth incubated for 48 to 72 hrs by microplate reader analysis; assay type: functional, organism-based; conditions: Candidozyma auris, time 48-72 hrs
Nakaseomyces glabratus [11] = experiment: Antifungal activity against Candida glabrata 9256 assessed as inhibition of fungal growth incubated for 48 to 72 hrs by microplate reader analysis; assay type: functional; conditions: time 48-72 hrs
[Candida] auris [12] = Antifungal activity against Candida auris 15448 assessed as inhibition of fungal growth incubated for 48 to 72 hrs by microplate reader analysis; assay type: functional, organism-based; conditions: Candidozyma auris, time 48-72 hrs
Cryptococcus neoformans [13] = experiment: (§1) Antifungal activity against Cryptococcus neoformans H99 infected in cryptococcosis female ICR mouse model assessed as reduction in cysts formation in brain cortex at 20 mg/kg, ip pre-infected with fungi for 3 hrs followed by compound administration and measured after 5 days by H and E staining based analysis; assay type: functional, organism-based; conditions: time 5.0 day
Cryptococcus neoformans [14] = experiment: as §1, with “pyknosis” for “cysts formation”, “neuronal nuclei by measuring reduction in staining” for “brain cortex”; assay type: functional, organism-based; conditions: time 5.0 day
Cryptococcus neoformans [15] = experiment: Induction of ROS accumulation in Cryptococcus neoformans H99 assessed as increase in intracellular ROS level by measuring intense green fluorescence at 4 microg/ml incubated for 24 hrs by DCFH-DA probe based fluorescence microscopic analysis; assay type: functional, organism-based; conditions: dose 4.0 µg/ml
Cryptococcus neoformans [16] = experiment: Induction of morphological changes in Cryptococcus neoformans H99 assessed as cell wall damage at 4 microg/ml incubated for 8 hrs by transmission electron microscopic analysis; assay type: functional, organism-based; conditions: dose 4.0 µg/ml
Cryptococcus neoformans [17] = experiment: Inhibition of biofilm formation in Cryptococcus neoformans H99 at 32 microg/ml incubated for 24 hrs by XTT reagent based assay relative to control; assay type: functional
Cryptococcus neoformans [18] = experiment: Antifungal activity against Cryptococcus neoformans H99 assessed as inhibition of fungal growth in presence of Fe(II) ions; assay type: functional
Cryptococcus neoformans [19] = experiment: Induction of oxidative damage in Cryptococcus neoformans H99 assessed as increase in MDA level at 4 microg/ml incubated for 24 hrs relative to control; assay type: functional; conditions: dose 4.0 µg/ml
Cryptococcus neoformans [20] = experiment: Inhibition of urease production in Cryptococcus neoformans H99 at 0.031 to 1 microg/ml by photographic analysis relative to control; assay type: functional; conditions: dose 0.031-1 µg/ml
Nakaseomyces glabratus [21] = experiment: Fungicidal activity against Candida glabrata 0161 at 32 microg/ml incubated for 48 hrs by time-kill kinetics analysis; assay type: functional, organism-based; conditions: dose 32.0 µg/ml
Cryptococcus neoformans [22] = experiment: Effect on intracellular free iron ions level in Cryptococcus neoformans H99 at 4 microg/ml incubated for 24 hrs by absorbance based analysis; assay type: functional, cell-based; conditions: dose 4.0 µg/ml
Cryptococcus neoformans [23] = experiment: Antifungal activity against Cryptococcus neoformans H99 assessed as inhibition of fungal growth in presence of Fe(III) ions; assay type: functional
Cryptococcus neoformans [24] = experiment: Inhibition of melanin production in Cryptococcus neoformans H99 at 0.031 to 1 microg/ml by photographic analysis relative to control; assay type: functional, organism-based; conditions: dose 0.031-1 µg/ml
Nakaseomyces glabratus [25] = experiment: Inhibition of matured biofilm in Candida glabrata 0161 at 2 to 32 microg/ml incubated for 24 hrs by XTT reagent based assay; assay type: functional, organism-based; conditions: dose 2-32 µg/ml
Cryptococcus neoformans [26] = experiment: Inhibition of capsule formation in Cryptococcus neoformans H99 at 32 microg/ml incubated for 24 hrs by light microscopic analysis; assay type: functional, organism-based; conditions: dose 32.0 µg/ml
Cryptococcus neoformans [27] = experiment: Antifungal activity against Cryptococcus neoformans H99 assessed as inhibition of fungal growth in presence of 10% serum containing transferrin-bound ferric iron and free iron; assay type: functional
Cryptococcus neoformans [28] = experiment: Inhibition of matured biofilm in Cryptococcus neoformans H99 at 2 to 32 microg/ml incubated for 24 hrs by XTT reagent based assay; assay type: functional, organism-based; conditions: dose 2-32 µg/ml
Cryptococcus neoformans [29] = experiment: Induction of morphological changes in Cryptococcus neoformans H99 assessed as organelle damage at 4 microg/ml incubated for 8 hrs by transmission electron microscopic analysis; assay type: functional, organism-based; conditions: dose 4.0 µg/ml
Cryptococcus neoformans [30] = experiment: Induction of morphological changes in Cryptococcus neoformans H99 assessed as nuclei damage at 4 microg/ml incubated for 8 hrs by transmission electron microscopic analysis; assay type: functional, organism-based; conditions: dose 4.0 µg/ml

SMILES	Activity (Cryptococcus neoformans [1])	Activity (Cryptococcus neoformans [2])	Activity (Candida albicans [3])	Activity (Nakaseomyces glabratus [4])	Activity (Cryptococcus neoformans [5])	Activity (Nakaseomyces glabratus [6])	Activity (Cryptococcus gattii)	Activity (Candida albicans [7])	Activity ([Candida] auris [8])	Activity (Candida albicans [9])	Activity ([Candida] auris [10])	Activity (Nakaseomyces glabratus [11])	Activity ([Candida] auris [12])	further results
Nc1cc(=O)n(C(=S)Nc2ccc(C(F)(F)F)cc2)[nH]1	Not active; Compound Demonstrated Reduced Activity Compared To Lead Compound 1	Not active; Compound Demonstrated Reduced Activity Compared To Lead Compound 1	Not active; Compound Demonstrated Reduced Activity Compared To Lead Compound 1	Active	Not active; Compound Demonstrated Reduced Activity Compared To Lead Compound 1	Active	Not active; Compound Demonstrated Reduced Activity Compared To Lead Compound 1	Not active; Compound Demonstrated Reduced Activity Compared To Lead Compound 1	Not active; Compound Demonstrated Reduced Activity Compared To Lead Compound 1	Not active; Compound Demonstrated Reduced Activity Compared To Lead Compound 1	Not active; Compound Demonstrated Reduced Activity Compared To Lead Compound 1	Active	Not active; Compound Demonstrated Reduced Activity Compared To Lead Compound 1	–
Nc1cc(=O)n(C(=S)Nc2ccc(C(=O)c3ccccc3)cc2)[nH]1	Active	Active	inactive	Active	Active	Active	Active	inactive	inactive	inactive	inactive	Active	inactive	–
CC(=O)c1ccc(NC(=S)n2[nH]c(N)cc2=O)cc1	Not active; Compound Demonstrated Reduced Activity Compared To Lead Compound 1	Not active; Compound Demonstrated Reduced Activity Compared To Lead Compound 1	Not active; Compound Demonstrated Reduced Activity Compared To Lead Compound 1	Active	Not active; Compound Demonstrated Reduced Activity Compared To Lead Compound 1	Active	Not active; Compound Demonstrated Reduced Activity Compared To Lead Compound 1	Not active; Compound Demonstrated Reduced Activity Compared To Lead Compound 1	Not active; Compound Demonstrated Reduced Activity Compared To Lead Compound 1	Not active; Compound Demonstrated Reduced Activity Compared To Lead Compound 1	Not active; Compound Demonstrated Reduced Activity Compared To Lead Compound 1	Active	Not active; Compound Demonstrated Reduced Activity Compared To Lead Compound 1	–
OC(Cn1cncn1)(Cn1cncn1)c1ccc(F)cc1F [FLUCONAZOLE]	–	–	–	–	–	–	–	–	–	–	–	–	–	Activity (Cryptococcus neoformans [13]): inactive; Activity (Cryptococcus neoformans [14]): inactive; Activity (Cryptococcus neoformans [15]): inactive; Activity (Cryptococcus neoformans [16]): inactive; inhibition at 32 µg/mL (Cryptococcus neoformans [17]): 17%; MIC (Cryptococcus neoformans [18]): 2 µg/mL; Activity (Cryptococcus neoformans [19]): inactive; inhibition (Cryptococcus neoformans [20]): inactive; Activity (Nakaseomyces glabratus [21]): inactive; Activity (Cryptococcus neoformans [22]): inactive; MIC (Cryptococcus neoformans [23]): 2 µg/mL; inhibition (Cryptococcus neoformans [24]): inactive; inhibition (Nakaseomyces glabratus [25]): Moderate_effect; inhibition (Cryptococcus neoformans [26]): inactive; MIC (Cryptococcus neoformans [27]): 2 µg/mL; inhibition (Cryptococcus neoformans [28]): inactive; Activity (Cryptococcus neoformans [29]): inactive; Activity (Cryptococcus neoformans [30]): inactive
S=C(Nc1ccc(C2CCCCC2)cc1)Nc1cc[nH]n1	inactive	inactive	inactive	inactive	inactive	inactive	inactive	inactive	inactive	inactive	inactive	inactive	inactive	–
CC(=O)c1ccc(NC(=O)n2[nH]c(N)cc2=O)cc1	inactive	inactive	inactive	inactive	inactive	inactive	inactive	inactive	inactive	inactive	inactive	inactive	inactive	–
CCc1ccc(NC(=S)n2[nH]c(N)cc2=O)cc1	Active	Active	Active	Active	Active	Active	Active	Active	Active	Active	Active	Active	Active	–
CCCCCCc1ccc(NC(=S)N2N=C(N)CCC2=O)cc1	inactive	inactive	inactive	inactive	inactive	inactive	inactive	inactive	inactive	inactive	inactive	inactive	inactive	–
CCCCCCCCc1ccc(NC(=S)n2[nH]c(N)cc2=O)cc1	Active	Active	Active	Active	Active	Active	Active	Active	Active	Active	Active	Active	Active	–
